Measurements as given in patent publication US20160317503A1, “ZOLMITRIPTAN POWDERS FOR PULMONARY DELIVERY” (Civitas Therapeutics, Inc., priority 2015, published 2016).

How the values were obtained:
[1] = DSC / modulated DSC thermal events (Tg, Low T1, Low T2, recrystallization, melt); format: physicochemical
Method: For comparative purposes, a 100% spray-dried zolmitriptan powder was prepared and analyzed via XRPD and DSC to allow for a comparison to the formulations from Example 2 that were placed on stability and to facilitate an interpretation of the resultant thermal data. Initially, a lot of amorphous 100% zolmitriptan was produced via a Buchi 290 Spray-Drying System (spray drying parameters: solids concentration=2 g/L, inlet temperature=90° C., outlet temperature=45° C., drying gas flowrate=20 kg/hr, atomization gas flowrate=10 g/min, aqueous flowrate=4 ml/Min, organic phase flowrate=6 ml/min, spray dryer pressure=−50 mbar) and analyzed via modulated DSC (TA Instruments DSC Q2000 Tzero System, MDSC Parameters: hermetically sealed double lid pan configuration, equilibrate at 0° C. for 5 minutes, ramp up to maximum of 160° C. at 2.0° C./min, modulate+/−1.00° C. every 60 seconds) to determine its glass transition temperature.

[2] = s.c.; cited from earlier work

For CN(C)CCc1c[nH]c2ccc(C[C@H]3COC(=O)N3)cc12 [Raw material, Zolmitriptan], the “Tm (° C.)” value ([1]; 100% zolmitriptan study, t = 0) was 136.0 °C, the “ΔH” value ([1]; 100% zolmitriptan study, t = 0) was 135.3 J/g and the “Tm (° C.)” value ([1]; 100% zolmitriptan study, t = 0, listed as Zolmitriptan raw material) was “approximately 136 °C”.

For CN(C)CCc1c[nH]c2ccc(C[C@H]3COC(=O)N3)cc12 [pure amorphous zolmitriptan, Zolmitriptan], the “glass transition temperature (Tg)” value ([1]; modulated DSC, amorphous 100% zolmitriptan, Buchi 290) was “approximately 33 °C”.

For CNS(=O)(=O)Cc1ccc2[nH]cc(CCN(C)C)c2c1 [sumatriptan], the reported half-lives [2] is listed as about 2 h.

In the case of CN(C)CCc1c[nH]c2ccc(C[C@H]3COC(=O)N3)cc12 [Zolmitriptan], the reported half-lives [2] is given as about 2 h.
